According to patent publication US20090023804A1, “ELECTROCHEMICAL METHODS FOR REDOX CONTROL TO PRESERVE, STABILIZE AND ACTIVATE COMPOUNDS” (priority 2006, published 2009):

Columns and labels:
Assay type in all cases: physicochemical
[1] = Stability of electrochemically oxidized EGCG solutions after pH modification (UV-visible spectra)
Text: Solutions were pH modified following electrochemical oxidation to observe stability. […] These samples were open to air, and no other precautions were taken to prevent oxidation by atmospheric oxygen.

[2] = Electrochemical oxidation of EGCG solutions at pH 6.0, followed by UV-visible absorbance and open circuit potential
Text: An electrochemical cell was fabricated using a fine porosity glass frit in 1″ diameter glass tubing. The electrochemical cell houses the counter electrode and keeps the Ag/AgCl reference electrode and platinum working electrode separate from the counter electrode. This addition to the system allowed the preparation of bulk solution. The working electrode and reference electrode compartment was continuously stirred using a small stir bar and a magnetic stirrer to minimize gradient effects at the working electrode.
The EGCG solutions were oxidized using a positive potential to a visual end point. UV-visible spectral data were collected during these experiments, including the absorbance at 270 nm and 320 nm, corresponding to the phenol and quinone forms of EGCG, respectively. In addition, the open cell potential was recorded as experiments progressed. The active redox potentials and experimental endpoints were determined based on current and visual color changes.
Due to solution evaporation over time, the ratio of absorbance at 320 nm divided by the absorbance at 270 nm was determined in order to account for overall absorption increases. […] In addition, the visual change in solution color from clear to yellow and pink was also monitored as an indicator of degree of oxidation.
Stirred EGCG solutions in 0.1 M phosphate buffer with 0.1 M KCl at pH 6.0 were monitored. […]

[3] = Reduction potential of model compounds; conditions: pH 7 Buffer solution versus Normal Hydrogen Electrode (NHE)
Protocol: The redox potential of the solution is measured by open cell potential. […] Cyclic voltammetry can be used to identify the various oxidation states and redox potentials for future manipulation of redox state. Additionally, FIG. 5 in the present application provides a working example of this assay by depicting the cyclic voltammetry trace for hypericin. As shown, there are multiple peaks in the range of 0-2 volts, that are the result of the different redox states of hypericin. This is manipulated according to the preferred or desired redox state to be achieved.
Once the redox potential of the preparation is measured, the redox state may be adjusted to the preferred or desired condition at any stage as previously described.
The multiple oxidation states of the molecule of interest can be determined electrochemically by cyclic voltammetry. The first phase involves applying an excessive positive potential (oxidizing potential) and oxidizing all the species present to one form. Then the applied voltage is stepped down in increments while monitoring current. When the mid-point redox potential of a reaction is approached, molecules begin to be reduced, causing current through the circuit. After returning all molecules to the reduced form, the voltage is increased and the redox potentials of the reaction(s) are recorded. […]

Row | stability of pH-modified sample after electrochemical oxidation ([1]; EGCG solution pH 6.26, 1500 mV for 11.4 hours, then pH 8.43, open to air, after 7 days) | stability of pH-modified samples after electrochemical oxidation ([1]; EGCG solution pH 6.26, 1500 mV for 11.4 hours, then pH modified, open to air, after one day) | oxidation of control samples ([1]; control samples at pH 6.26, no potential) | change in absorbance at 270 and 320 nm ([2]; after seven hours, 800 mV solution and control solution) | stability of electrochemically-induced changes (320 nm absorbance over time) ([2]; solutions left with no current after 68 h, until 120 h) | SMILES | Reduction Potential [3] [mV]
1 | relatively stable after 7 days | stable after one day | did not oxidize | no change | stable for over two days | O=C(O[C@@H]1Cc2c(O)cc(O)cc2O[C@@H]1c1cc(O)c(O)c(O)c1)c1cc(O)c(O)c(O)c1 [Epigallocatechin gallate, epigallocatechin gallate] | 
2 |  |  |  |  |  | O=c1c(O)c(-c2ccc(O)c(O)c2)oc2cc(O)cc(O)c12 [Quercitin] | 120
3 |  |  |  |  |  | O=C(O)/C=C/c1ccc(O)c(O)c1 [Caffeic Acid] | 120
